Key:
Test in all cases: relative viability (nuclei count vs DMSO), 5 days (fraction); higher = more cells survive
PAC-1 + Phenformin = compound: C=CCc1cccc(/C=N/NC(=O)CN2CCN(Cc3ccccc3)CC2)c1O [PAC-1] + N=C(N)NC(=N)NCCc1ccccc1 [Phenformin] (partner 250 µM)
Outline: (§1)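 Lung cancer cell lines, seeded in 1536-well plates, were treated the following day by pin tool with a single drug or with five library-drug doses (not always all listed) in √10 steps on top of a fixed anchor-drug dose. Cells were fixed and nuclei stained in one step after 5 days, and nuclei were counted. Relative viability is the nuclei count for treated wells divided by that for vehicle wells, reported as medians of duplicate plates.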

Ibrutinib + Trametinib = compound: C=CC(=O)N1CCC[C@@H](n2nc(-c3ccc(Oc4ccccc4)cc3)c3c(N)ncnc32)C1 [Ibrutinib] + CC(=O)Nc1cccc(-n2c(=O)n(C3CC3)c(=O)c3c(Nc4ccc(I)cc4F)n(C)c(=O)c(C)c32)c1 [Trametinib] (partner 0.02 µM)
Outline: as §1

PAC-1 + Alpelisib = compound: C=CCc1cccc(/C=N/NC(=O)CN2CCN(Cc3ccccc3)CC2)c1O [PAC-1] + Cc1nc(NC(=O)N2CCC[C@H]2C(N)=O)sc1-c1ccnc(C(C)(C)C(F)(F)F)c1 [Alpelisib] (partner 2 µM)
Outline: as §1

Ibrutinib + Navitoclax = compound: C=CC(=O)N1CCC[C@@H](n2nc(-c3ccc(Oc4ccccc4)cc3)c3c(N)ncnc32)C1 [Ibrutinib] + CC1(C)CCC(c2ccc(Cl)cc2)=C(CN2CCN(c3ccc(C(=O)NS(=O)(=O)c4ccc(N[C@H](CCN5CCOCC5)CSc5ccccc5)c(S(=O)(=O)C(F)(F)F)c4)cc3)CC2)C1 [Navitoclax] (partner 0.5 µM)
Outline: as §1

| Cell Line | relative viability (PAC-1 + Phenformin; first compound 0.02 µM) | relative viability (PAC-1 + Phenformin; first compound 0.06325 µM) | relative viability (PAC-1 + Phenformin; first compound 0.2 µM) | relative viability (PAC-1 + Phenformin; first compound 2 µM) | relative viability (Ibrutinib + Trametinib; first compound 0.005 µM) | relative viability (Ibrutinib + Trametinib; first compound 0.01581 µM) | relative viability (Ibrutinib + Trametinib; first compound 0.05 µM) | relative viability (Ibrutinib + Trametinib; first compound 0.5 µM) | relative viability (PAC-1 + Alpelisib; first compound 0.02 µM) | relative viability (PAC-1 + Alpelisib; first compound 0.06325 µM) | relative viability (PAC-1 + Alpelisib; first compound 0.2 µM) | relative viability (PAC-1 + Alpelisib; first compound 2 µM) | relative viability (Ibrutinib + Navitoclax; first compound 0.005 µM) | relative viability (Ibrutinib + Navitoclax; first compound 0.01581 µM) | relative viability (Ibrutinib + Navitoclax; first compound 0.05 µM) | relative viability (Ibrutinib + Navitoclax; first compound 0.1581 µM) | relative viability (Ibrutinib + Navitoclax; first compound 0.5 µM) | relative viability (Ibrutinib + Trametinib; first compound 0.1581 µM) |
| --- | --- | --- | --- | --- | --- | --- | --- | --- | --- | --- | --- | --- | --- | --- | --- | --- | --- | --- |
| EKVX | 0.232 | 0.244 | 0.226 | 0.195 | 0.322 | 0.343 | 0.392 | 0.215 | 0.788 | 0.956 | 0.801 | 0.899 | 0.868 | 0.96 | 0.915 | 0.806 | 0.485 |  |
| EMC-BAC-2 | 0.496 | 0.556 | 0.52 | 0.511 | 0.836 | 0.895 |  | 1.03 | 0.72 | 0.801 | 0.737 | 0.67 | 1.16 | 1.06 | 1.01 | 1.16 | 1.02 |  |
| EPLC-272H | 0.298 | 0.339 | 0.241 | 0.288 |  | 0.293 | 0.311 | 0.243 |  | 0.96 | 0.817 | 0.764 |  | 0.982 | 1.07 | 1.28 | 0.694 | 0.277 |
| H3255 | 0.398 | 0.394 | 0.334 | 0.308 | 0.461 | 0.531 |  | 0.378 | 0.823 | 0.78 | 0.702 | 0.717 | 0.539 | 0.511 | 0.226 | 0.425 | 0.157 | 0.624 |
| HARA | 0.438 | 0.476 | 0.446 | 0.507 | 0.719 | 0.633 | 0.638 | 0.262 | 0.735 | 0.809 | 0.779 | 0.928 | 1.17 | 1.1 | 1.12 | 1.15 | 0.791 | 0.78 |
| HCC-15 | 0.466 | 0.487 | 0.457 | 0.491 | 0.387 | 0.367 | 0.419 | 0.365 | 0.924 | 0.831 | 0.854 | 0.851 | 0.741 | 0.62 | 0.701 | 0.727 | 0.673 | 0.432 |
| HCC-44 | 0.184 | 0.18 | 0.17 | 0.131 | 1.04 | 1.04 | 0.992 | 1.06 | 0.782 | 0.875 | 0.774 | 0.855 | 0.977 | 0.913 | 0.935 | 0.995 | 0.919 | 1.19 |
| HCC-78 | 0.8 | 0.639 | 0.809 | 0.759 |  | 0.569 | 0.622 | 0.706 | 0.308 | 0.373 | 0.368 | 0.303 | 0.785 | 0.746 | 0.722 | 0.696 | 0.566 | 0.698 |
| HCC-366 | 0.612 | 0.634 | 0.595 | 0.655 | 0.34 | 0.366 | 0.317 | 0.391 | 0.409 | 0.52 | 0.335 | 0.437 | 0.986 | 0.977 | 1.06 |  |  | 0.394 |
